Assay results taken from publication PMC3697074 (Journal of medicinal chemistry, 2011).

system: P. falciparum K1 (CQ-resistant strain); test: Antimalarial activity, chloroquine-resistant strain K1; format: cell-based, Plasmodium falciparum

| SMILES | antimalarial activity against strain K1 (in words) |
| --- | --- |
| COc1cccc(Oc2ccc3c(NCCCNCc4cc(F)ccc4OC)ccnc3c2)c1 [3{1,3,4}] | enhanced potency in strain K1 |
| COc1ccc(F)cc1CNCCCNc1ccnc2cc(Oc3ccccc3)ccc12 [3{1,1,4}] | enhanced potency in strain K1 |
| COc1ccc(F)cc1CNCCCNc1ccnc2cc(Oc3ccc(F)cc3)ccc12 [3{1,5,4}] | enhanced potency in strain K1 |
